According to patent US4258180A, “C6-Modified cyclodextrin sulfate salts as complement inhibitors” (American Cyanamid Company, priority 1979, dated 1981):
Structures can show the parent of a compound that is named as a salt.

Legend:
Format in all cases: biochemical
[1] = test system: late components of human complement (C3-C9); test: Test Code 035 (C3-C9 inhibitor), lysis of EAC 142; conditions: serial dilution assay, twofold dilutions; higher well number indicates higher activity; N = Negative
Text: (§1) An active inhibitor protects C2 from C1 and C4; (ii) Test Code 035 (C3-C9 inhibitor)--This test determines the ability of the late components of human complement (C3-C9) to lyse EAC 142 in the presence of appropriate dilutions of the test compound. An active inhibitor protects EAC 142 from lysis by human C3-C9; (iii) Test Code 036 (C-Shunt inhibitor)--In this test human erythrocytes rendered fragile are lysed in autologous serum via the shunt pathway activated by cobra venom factor in the presence of appropriate dilutions of the test compound. Inhibition of the shunt pathway results in failure of lysis; (iv) Forssman Vasculitis Test--Here, the well known complement dependent lesion, Forssman Vasculitis, is produced in guinea pigs by intradermal injection of rabbit anti-Forssman antiserum. The lesion is measured in terms of diameter, edema and hemorrhage and the extent to which a combined index of these is inhibited by prior intraperitoneal injection of the test compound at 200 mg/kg is then reported, unless otherwise stated; (v) Forssman Shock Test--Lethal shock is produced in guinea pigs by an i.v. injection of anti-Forssman antiserum and the harmonic mean death time of treated guinea pigs is compared with that of simultaneous controls; (vi) Complement Level Reduction Test--In this test, the above dosed guinea pigs, or others, are bled for serum and the complement level is determined in undiluted serum by the capillary tube method of U.S. Pat. No. 3,876,376 and compared to undosed control guinea pigs; and (vii) Cap 50 Test--Here, appropriate amounts of the test compound are added to a pool of guinea pig serum in vitro, after which the undiluted serum capillary tube assay referred to above is run. The concentration of compound inhibiting 50% is reported.

activated human C1 = activated human C1 (Homo sapiens, UniProt P09871); test: Test Code 026 (C1 inhibitor); conditions: serial dilution assay, twofold dilutions; higher well number indicates higher activity
Text: as §1

shunt pathway = test: Test Code 036 (C-Shunt inhibitor), lysis of fragile human erythrocytes in autologous serum, cobra venom factor; conditions: serial dilution assay, twofold dilutions; higher well number indicates higher activity; N = Negative
Text: as §1

SMILES | 035 Activity in wells [1] | 026 Activity in wells (activated human C1) | 036 Activity in wells (shunt pathway)
[N-]=[N+]=NC[C@H]1O[C@@H]2O[C@H]3[C@H](OS(=O)(=O)O)[C@@H](OS(=O)(=O)O)[C@@H](O[C@H]4[C@H](OS(=O)(=O)O)[C@@H](OS(=O)(=O)O)[C@@H](O[C@H]5[C@H](OS(=O)(=O)O)[C@@H](OS(=O)(=O)O)[C@@H](O[C@H]6[C@H](OS(=O)(=O)O)[C@@H](OS(=O)(=O)O)[C@@H](O[C@H]7[C@H](OS(=O)(=O)O)[C@@H](OS(=O)(=O)O)[C@@H](O[C@H]8[C@H](OS(=O)(=O)O)[C@@H](OS(=O)(=O)O)[C@@H](O[C@H]1[C@H](OS(=O)(=O)O)[C@H]2OS(=O)(=O)O)O[C@@H]8CN=[N+]=[N-])O[C@@H]7CN=[N+]=[N-])O[C@@H]6CN=[N+]=[N-])O[C@@H]5CN=[N+]=[N-])O[C@@H]4CN=[N+]=[N-])O[C@@H]3CN=[N+]=[N-] [β-Cyclo[6-azido-6-deoxy]dextrin poly(H-sulfate)poly-sodium s] [6,6',6",6'",6"",6'"",6"""-Heptaazido-6,6',6",6'",6"",6'"",6"""-heptadeoxy-β-cyclodextrin, tetradecakis(H-sulfate), tetradecasoium salt] | 2 wells | 6 wells | 4 wells
[N-]=[N+]=NC[C@H]1O[C@@H]2O[C@H]3[C@H](OS(=O)(=O)O)[C@@H](OS(=O)(=O)O)[C@@H](O[C@H]4[C@H](OS(=O)(=O)O)[C@@H](OS(=O)(=O)O)[C@@H](O[C@H]5[C@H](OS(=O)(=O)O)[C@@H](OS(=O)(=O)O)[C@@H](O[C@H]6[C@H](OS(=O)(=O)O)[C@@H](OS(=O)(=O)O)[C@@H](O[C@H]7[C@H](OS(=O)(=O)O)[C@@H](OS(=O)(=O)O)[C@@H](O[C@H]8[C@H](OS(=O)(=O)O)[C@@H](OS(=O)(=O)O)[C@@H](O[C@H]1[C@H](OS(=O)(=O)O)[C@H]2OS(=O)(=O)O)O[C@@H]8CN=[N+]=[N-])O[C@@H]7CN=[N+]=[N-])O[C@@H]6CN=[N+]=[N-])O[C@@H]5CN=[N+]=[N-])O[C@@H]4CN=[N+]=[N-])O[C@@H]3CN=[N+]=[N-] [β-Cyclo[6-azido-6-deoxy]dextrin poly(H-sulfate)poly-trimethy] [6,6',6",6'",6"",6'"",6"""-Heptaazido-6,6',6",6'",6"",6'"",6"""-heptadeoxy-β-cyclodextrin, tetradecakis(H-sulfate), tetradecasalt with trimethylamine] | N | 2 wells | N
O=S(=O)(O)O[C@@H]1[C@@H](OS(=O)(=O)O)[C@H]2O[C@H]3[C@H](OS(=O)(=O)O)[C@@H](OS(=O)(=O)O)[C@@H](O[C@H]4[C@H](OS(=O)(=O)O)[C@@H](OS(=O)(=O)O)[C@@H](O[C@H]5[C@H](OS(=O)(=O)O)[C@@H](OS(=O)(=O)O)[C@@H](O[C@H]6[C@H](OS(=O)(=O)O)[C@@H](OS(=O)(=O)O)[C@@H](O[C@H]7[C@H](OS(=O)(=O)O)[C@@H](OS(=O)(=O)O)[C@@H](O[C@H]8[C@H](OS(=O)(=O)O)[C@@H](OS(=O)(=O)O)[C@@H](O[C@@H]1[C@@H](CBr)O2)O[C@@H]8CBr)O[C@@H]7CBr)O[C@@H]6CBr)O[C@@H]5CBr)O[C@@H]4CBr)O[C@@H]3CBr [β-Cyclo[6-bromo-6-deoxy]dextrin poly(H-sulfate)poly-sodium s] [6,6',6",6'",6"",6'"",6"""-Heptabromo-6,6',6",6'",6"",6'"",6"""-heptadeoxy-β-cyclodextrin, tetradecakis(H-sulfate), tetradecasodium salt] | 3 wells | 7 wells | 5 wells
O=S(=O)(O)O[C@@H]1[C@@H](OS(=O)(=O)O)[C@H]2O[C@H]3[C@H](OS(=O)(=O)O)[C@@H](OS(=O)(=O)O)[C@@H](O[C@H]4[C@H](OS(=O)(=O)O)[C@@H](OS(=O)(=O)O)[C@@H](O[C@H]5[C@H](OS(=O)(=O)O)[C@@H](OS(=O)(=O)O)[C@@H](O[C@H]6[C@H](OS(=O)(=O)O)[C@@H](OS(=O)(=O)O)[C@@H](O[C@H]7[C@H](OS(=O)(=O)O)[C@@H](OS(=O)(=O)O)[C@@H](O[C@H]8[C@H](OS(=O)(=O)O)[C@@H](OS(=O)(=O)O)[C@@H](O[C@@H]1[C@@H](CBr)O2)O[C@@H]8CBr)O[C@@H]7CBr)O[C@@H]6CBr)O[C@@H]5CBr)O[C@@H]4CBr)O[C@@H]3CBr [β-Cyclo[6-bromo-6-dexoy]dextrin poly(H-sulfate)poly-trimethy] [6,6',6",6'",6"",6'""-Heptabromo-6,6',6",6'",6"",6'"",6"""-heptadeoxy-β-cyclodextrin tetradecakis(H-sulfate), tatradecasalt with trimethylamine] | 3 wells | 6 wells | 4 wells
N#CSC[C@H]1O[C@@H]2O[C@H]3[C@H](OS(=O)(=O)O)[C@@H](OS(=O)(=O)O)[C@@H](O[C@H]4[C@H](OS(=O)(=O)O)[C@@H](OS(=O)(=O)O)[C@@H](O[C@H]5[C@H](OS(=O)(=O)O)[C@@H](OS(=O)(=O)O)[C@@H](O[C@H]6[C@H](OS(=O)(=O)O)[C@@H](OS(=O)(=O)O)[C@@H](O[C@H]7[C@H](OS(=O)(=O)O)[C@@H](OS(=O)(=O)O)[C@@H](O[C@H]8[C@H](OS(=O)(=O)O)[C@@H](OS(=O)(=O)O)[C@@H](O[C@H]1[C@H](OS(=O)(=O)O)[C@H]2OS(=O)(=O)O)O[C@@H]8CSC#N)O[C@@H]7CSC#N)O[C@@H]6CSC#N)O[C@@H]5CSC#N)O[C@@H]4CSC#N)O[C@@H]3CSC#N [β-Cyclo[6-deoxy-6-thiocyanato]dextrin poly(H-sulfate)poly-so] [6,6',6",6'",6"",6'"",6"""-Heptadeoxy-6,6',6",6'",6"",6'"",6"""-heptathiocyanato-β-cyclodextrin, tetradecakis(H-sulfate), tetradecasodium salt] | 2 wells | 7 wells | 4 wells
N#CSC[C@H]1O[C@@H]2O[C@H]3[C@H](OS(=O)(=O)O)[C@@H](OS(=O)(=O)O)[C@@H](O[C@H]4[C@H](OS(=O)(=O)O)[C@@H](OS(=O)(=O)O)[C@@H](O[C@H]5[C@H](OS(=O)(=O)O)[C@@H](OS(=O)(=O)O)[C@@H](O[C@H]6[C@H](OS(=O)(=O)O)[C@@H](OS(=O)(=O)O)[C@@H](O[C@H]7[C@H](OS(=O)(=O)O)[C@@H](OS(=O)(=O)O)[C@@H](O[C@H]8[C@H](OS(=O)(=O)O)[C@@H](OS(=O)(=O)O)[C@@H](O[C@H]1[C@H](OS(=O)(=O)O)[C@H]2OS(=O)(=O)O)O[C@@H]8CSC#N)O[C@@H]7CSC#N)O[C@@H]6CSC#N)O[C@@H]5CSC#N)O[C@@H]4CSC#N)O[C@@H]3CSC#N [β-Cyclo[6-deoxy-6-thiocyanato]dextrin poly(H-sulfate)poly-tr] [6,6',6",6'",6"",6'"",6"""-Heptadeoxy-6,6',6",6'",6"",6'"",6""-heptathiocyanato-β-cyclodextrin, tetradecakis(H-sulfte), tetradecasalt with trimethylamine] | N | 4 wells | 1 wells
